Publication PMC10458444 (Viruses, 2023)
Counter-ions that a name gives are not always drawn.

How the values were obtained:
MERS-CoV PsV = experiment: microbe, parasite or virus in culture; assay type: cell-based; details: Middle East respiratory syndrome-related coronavirus, 48 h, read-out: IC50, inhibition of MERS-CoV PsV infection
[1] = Cytotoxicity assay (CCK-8); details: human, HEK293T-hACE2 cells
[2] = test system: SARS-CoV-2 Omicron BA.4 PsV; assay type: cell-based
SARS-CoV-2 (D614) PsV = experiment: microbe, parasite or virus in culture; assay type: cell-based; details: for IC50: Severe acute respiratory syndrome coronavirus 2, 48 h, read-out: IC50, inhibition of SARS-CoV-2 (D614) PsV infection
SARS-CoV PsV = experiment: microbe, parasite or virus in culture; assay type: cell-based; details: Severe acute respiratory syndrome coronavirus, 48 h, read-out: IC50, inhibition of SARS-CoV PsV infection
[3] = test system: SARS-CoV-2 spike-pseudovirus (D614); set-up: species or system K18-hACE2 transgenic mice; details: mouse, in vivo
SARS-CoV-2 PsV (D614) = experiment: Time-of-addition assay; assay type: cell-based; details: compound added 8 h after the addition of SARS-CoV-2 PsV
SARS-CoV-2 spike protein = SARS-CoV-2 spike protein (Severe acute respiratory syndrome coronavirus 2, UniProt P0DTC2); assay type: cell-based; details: co-incubated with PsV 1 h, HEK293T-hACE2 cells 12 h, Western blotting

Row | Compound | IC50 (MERS-CoV PsV) | CC50 at 48 h [1] | inhibitory activity in primary screening against Omicron (BA.4) PsV [2] | SI, selectivity index = CC50/IC50 (SARS-CoV-2 (D614) PsV) | IC50 (SARS-CoV-2 (D614) PsV) | IC50 (SARS-CoV PsV) | infection, luciferase gene expression in lung tissues (RT-qPCR) [3] | viral load, HIV-1 Gag p55 and p24 protein levels in lung [3] | inhibitory activity, time of addition (SARS-CoV-2 PsV (D614)) | effect on cleavage of S protein in cells (full-length S protein level) (SARS-CoV-2 spike protein)
1 | CC(=O)c1ccc2c(c1)N(CCCN(C)C)c1ccccc1S2 [Acepromazine maleate, acepromazine maleate] | 1580 nM | 93300 ± 11500 nM | significant inhibitory activities | 51.179 | 1820 ± 230 nM | 1390 nM | – | – | – | –
2 | CC(CN(C)C)CN1c2ccccc2Sc2ccccc21 (stereo not drawn) [Alimemazine hemitartrate, alimemazine hemitartrate] | 1220 nM | 53400 ± 10900 nM | – | 111.929 | 477 ± 124 nM | 356 nM | – | – | – | –
3 | CCCCCCCCCC(=O)OCCN1CCN(CCCN2c3ccccc3Sc3ccc(C(F)(F)F)cc32)CC1 [Fluphenazine decanoate, fluphenazine decanoate] | 2640 nM | 61600 ± 28800 nM | – | 15.775 | 3900 ± 1090 nM | 3960 nM | – | – | – | –
4 | OCCN1CCN(CCCN2c3ccccc3Sc3ccc(Cl)cc32)CC1 [Perphenazine, perphenazine] | 1280 nM | 18100 ± 1450 nM | significant inhibitory activities | 21.805 | 831 ± 120 nM | 1160 nM | – | – | – | –
5 | CN1CCN(CCCN2c3ccccc3Sc3ccc(Cl)cc32)CC1 [Prochlorperazine maleate, prochlorperazine maleate] | – | 85200 ± 13900 nM | – | – | – | – | significantly inhibited | significant reduction in the viral load | about 20% | –
6 | teicoplanin | – | – | – | – | – | – | – | – | – | prevented the cleavage of S protein
